The text below walks through data of ChEMBL document CHEMBL3352227, “Synthesis, antimycobacterial and antibacterial evaluation of l-[(1R, 2S)-2-fluorocyclopropyl]fluoroquinolone derivatives containing an oxime functional moiety” (Eur J Med Chem, 2014).

Common to all, as to assay type: functional
Experiment [1] relates to Mycobacterium tuberculosis. The experiment in a line: Antimycobacterial activity against Mycobacterium tuberculosis H37Rv ATCC 27294 by MABA method. In general terms: Resazurin is reduced to fluorescent resorufin, in cell work by metabolically active cells.
Experiment [2] concerns Escherichia coli. The experiment in a line: Antibacterial activity against Escherichia coli ATCC 25922 after 18 to 24 hrs by standard twofold serial dilution method.
The subject of experiment [3] is Escherichia coli. The experiment in a line: Antibacterial activity against Escherichia coli 12-1 after 18 to 24 hrs by standard twofold serial dilution method.
The test system of experiment [4] is Escherichia coli. The experiment in a line: Antibacterial activity against extended-spectrum beta-lactamase producing Escherichia coli 12-2 after 18 to 24 hrs by standard twofold serial dilution method.
Experiment [5] concerns Escherichia coli. The experiment in a line: Antibacterial activity against extended-spectrum beta-lactamase producing Escherichia coli 12-3 after 18 to 24 hrs by standard twofold serial dilution method.
The subject of experiment [6] is Escherichia coli. The experiment in a line: Antibacterial activity against extended-spectrum beta-lactamase producing Escherichia coli 12-14 after 18 to 24 hrs by standard twofold serial dilution method.
The subject of experiment [7] is Escherichia coli. The experiment in a line: Antibacterial activity against extended-spectrum beta-lactamase producing Escherichia coli 12-15 after 18 to 24 hrs by standard twofold serial dilution method.
Experiment [8] relates to Klebsiella pneumoniae. The experiment in a line: Antibacterial activity against Klebsiella pneumoniae 12-1 after 18 to 24 hrs by standard twofold serial dilution method.
Experiment [9] has as its system Klebsiella pneumoniae. The experiment in a line: Antibacterial activity against Klebsiella pneumoniae 12-2 after 18 to 24 hrs by standard twofold serial dilution method.
Experiment [10] concerns Klebsiella pneumoniae. The experiment in a line: Antibacterial activity against Klebsiella pneumoniae 12-4 after 18 to 24 hrs by standard twofold serial dilution method.
For experiment [11], the system named is Klebsiella pneumoniae. The experiment in a line: Antibacterial activity against extended-spectrum beta-lactamase producin Klebsiella pneumoniae 12-3 after 18 to 24 hrs by standard twofold serial dilution method.
In experiment [12] the test system is Klebsiella pneumoniae. The experiment in a line: Antibacterial activity against extended-spectrum beta-lactamase producin Klebsiella pneumoniae 12-4 after 18 to 24 hrs by standard twofold serial dilution method.
Experiment [13] has as its system Klebsiella pneumoniae. The experiment in a line: Antibacterial activity against extended-spectrum beta-lactamase producin Klebsiella pneumoniae 12-14 after 18 to 24 hrs by standard twofold serial dilution method.
The subject of experiment [14] is Pseudomonas aeruginosa. The experiment in a line: Antibacterial activity against Pseudomonas aeruginosa 12-12 after 18 to 24 hrs by standard twofold serial dilution method.
Experiment [15] has as its system Pseudomonas aeruginosa. The experiment in a line: Antibacterial activity against Pseudomonas aeruginosa 12-14 after 18 to 24 hrs by standard twofold serial dilution method.
Experiment [16] relates to Staphylococcus aureus. The experiment in a line: Antibacterial activity against Staphylococcus aureus ATCC 25923 after 18 to 24 hrs by standard twofold serial dilution method.
In experiment [17] the test system is Staphylococcus aureus. The experiment in a line: Antibacterial activity against methicillin-sensitive Staphylococcus aureus 12-1 after 18 to 24 hrs by standard twofold serial dilution method.
Experiment [18] has as its system Staphylococcus aureus. The experiment in a line: Antibacterial activity against methicillin-sensitive Staphylococcus aureus 12-2 after 18 to 24 hrs by standard twofold serial dilution method.
In experiment [19] the test system is Staphylococcus aureus. The experiment in a line: Antibacterial activity against methicillin-sensitive Staphylococcus aureus 12-4 after 18 to 24 hrs by standard twofold serial dilution method.
Experiment [20] deals with Staphylococcus aureus. The experiment in a line: Antibacterial activity against methicillin-sensitive Staphylococcus aureus 12-5 after 18 to 24 hrs by standard twofold serial dilution method.
Experiment [21] relates to Staphylococcus aureus. The experiment in a line: Antibacterial activity against methicillin-resistant Staphylococcus aureus 12-2 after 18 to 24 hrs by standard twofold serial dilution method.
Experiment [22] deals with Staphylococcus aureus. The experiment in a line: Antibacterial activity against methicillin-resistant Staphylococcus aureus 12-4 after 18 to 24 hrs by standard twofold serial dilution method.
The test system of experiment [23] is Staphylococcus aureus. The experiment in a line: Antibacterial activity against methicillin-resistant Staphylococcus aureus 12-5 after 18 to 24 hrs by standard twofold serial dilution method.
Experiment [24] concerns Staphylococcus epidermidis. The experiment in a line: Antibacterial activity against methicillin-sensitive Staphylococcus epidermidis 12-1 after 18 to 24 hrs by standard twofold serial dilution method.
Experiment [25] relates to Staphylococcus epidermidis. The experiment in a line: Antibacterial activity against methicillin-sensitive Staphylococcus epidermidis 12-3 after 18 to 24 hrs by standard twofold serial dilution method.
Experiment [26] deals with Staphylococcus epidermidis. The experiment in a line: Antibacterial activity against methicillin-sensitive Staphylococcus epidermidis 12-6 after 18 to 24 hrs by standard twofold serial dilution method.
Experiment [27] deals with Staphylococcus epidermidis. The experiment in a line: Antibacterial activity against methicillin-sensitive Staphylococcus epidermidis 12-8 after 18 to 24 hrs by standard twofold serial dilution method.
The test system of experiment [28] is Staphylococcus epidermidis. The experiment in a line: Antibacterial activity against methicillin-resistant Staphylococcus epidermidis 12-1 after 18 to 24 hrs by standard twofold serial dilution method.
For experiment [29], the system named is Staphylococcus epidermidis. The experiment in a line: Antibacterial activity against methicillin-resistant Staphylococcus epidermidis 12-6 after 18 to 24 hrs by standard twofold serial dilution method.
For experiment [30], the system named is Streptococcus pneumoniae. The experiment in a line: Antibacterial activity against Streptococcus pneumoniae ATCC 49619 after 18 to 24 hrs by standard twofold serial dilution method.
The test system of experiment [31] is Klebsiella pneumoniae. The experiment in a line: Antibacterial activity against extended-spectrum beta-lactamase producin Klebsiella pneumoniae 12-7 after 18 to 24 hrs by standard twofold serial dilution method.
For experiment [32], the system named is Streptococcus pneumoniae. The experiment in a line: Antibacterial activity against Streptococcus pneumoniae 12-18 after 18 to 24 hrs by standard twofold serial dilution method.

In brackets after ≈: the same amount, converted by molar mass. A value given as a limit tells only on which side of the number the result lay.

What is called MIC is the lowest concentration found to suppress growth. Lower therefore signals greater potency. Regarding `NNC(=O)c1ccncc1` [ISONIAZID], the MIC in experiment [1] was determined as 0.05 µg/mL (≈ 0.365 µM).

`C[C@H]1COc2c(N3CCN(C)CC3)c(F)cc3c(=O)c(C(=O)O)cn1c23.C[C@H]1COc2c(N3CCN(C)CC3)c(F)cc3c(=O)c(C(=O)O)cn1c23.O` [LEVOFLOXACIN]: the MIC in experiment [1] was 0.25 µg/mL; in [2], below 0.008 µg/mL; in experiment [3], 0.25 µg/mL; in experiment [4] it was 16 µg/mL; in experiment [5], 32 µg/mL; in experiment [6], 16 µg/mL. For the same compound, the MIC in experiment [7] is 32 µg/mL; in experiment [8], 0.06 µg/mL; in experiment [9], below 0.008 µg/mL; in experiment [10] it was below 0.008 µg/mL; in experiment [11] it was 16 µg/mL; in [12] it was 8 µg/mL. The MIC in [13] is 16 µg/mL; in experiment [14], 0.5 µg/mL; in experiment [15], 16 µg/mL; in experiment [16], below 0.008 µg/mL; in experiment [17] it was 0.125 µg/mL; in experiment [18], 0.125 µg/mL. Further, the minimal inhibitory concentration (MIC) is 0.125 µg/mL in [19]; 0.125 µg/mL in experiment [20]; 32 µg/mL in experiment [21]; 32 µg/mL in experiment [22]; 32 µg/mL in experiment [23]; 0.125 µg/mL in [24]. Moreover, the MIC in experiment [25] was found to be 0.5 µg/mL; in experiment [26], 0.125 µg/mL; in experiment [27] it was 4 µg/mL; in [28], 4 µg/mL; in experiment [29] it was 32 µg/mL; in experiment [30], 0.125 µg/mL.

Regarding `COc1c(N2C[C@@H]3CCCN[C@@H]3C2)c(F)cc2c(=O)c(C(=O)O)cn(C3CC3)c12` [MOXIFLOXACIN], the MIC was below 0.008 µg/mL in [2]; 0.5 µg/mL (≈ 1.25 µM) in [3]; 32 µg/mL (≈ 79.7 µM) in experiment [4]; 64 µg/mL (≈ 159 µM) in [5]; 32 µg/mL (≈ 79.7 µM) in experiment [7]; 0.015 µg/mL (≈ 0.0374 µM) in experiment [8]. The MIC in experiment [9] was 0.06 µg/mL (≈ 0.149 µM); in experiment [10] it was 0.03 µg/mL (≈ 0.0747 µM); in experiment [11] it was 32 µg/mL (≈ 79.7 µM); in [12], 0.5 µg/mL (≈ 1.25 µM); in [31], 0.5 µg/mL (≈ 1.25 µM); in [13] it was 64 µg/mL (≈ 159 µM). The MIC in experiment [14] is 2 µg/mL (≈ 4.98 µM); in experiment [15], 16 µg/mL (≈ 39.9 µM); in experiment [16], below 0.008 µg/mL; in experiment [17] it was 0.015 µg/mL (≈ 0.0374 µM); in [18], below 0.008 µg/mL; in [19] it was below 0.008 µg/mL. The MIC in experiment [20] was determined as 0.015 µg/mL (≈ 0.0374 µM); in experiment [21], 8 µg/mL (≈ 19.9 µM); in [22], 8 µg/mL (≈ 19.9 µM); in experiment [23], 8 µg/mL (≈ 19.9 µM); in [24], 0.03 µg/mL (≈ 0.0747 µM); in [25], 0.125 µg/mL (≈ 0.311 µM). For the same compound, the MIC in [26] was 0.03 µg/mL (≈ 0.0747 µM); in experiment [27] it was 1 µg/mL (≈ 2.49 µM); in experiment [28], 0.25 µg/mL (≈ 0.623 µM); in experiment [29], 16 µg/mL (≈ 39.9 µM); in experiment [30], 0.06 µg/mL (≈ 0.149 µM); in experiment [32] it was 0.5 µg/mL (≈ 1.25 µM).

As for `CO[C@H]1/C=C/O[C@@]2(C)Oc3c(C)c(O)c4c(O)c(c(/C=N/N5CCN(C)CC5)c(O)c4c3C2=O)NC(=O)/C(C)=C\C=C\[C@H](C)[C@H](O)[C@@H](C)[C@@H](O)[C@@H](C)[C@H](OC(C)=O)[C@@H]1C` [RIFAMPIN], in [1], the MIC is 0.05 µg/mL (≈ 0.0608 µM).
